According to publication PMC10451648 (Antibiotics, 2023):
In brackets after ≈: the same amount, converted by molar mass. Entries after “also recorded” stand apart in the source; their conditions may differ. Read-outs that look alike come from different tables or passages of the source. Square brackets hold non-standard residues; d marks the D form. Peptide text beside a SMILES is read from it. Api = NC1(C(=O)O)CCNCC1; Aib = CC(C)(N)C(=O)O

Experiments:
[1] = tested on: Escherichia coli DH5α; type: cell-based; conditions: broth microdilution, 10^4 CFUs per mL, 18 h at 35 °C; MIC = lowest concentration that completely inhibited bacterial growth; final conc. 0.39 to 100
Method: (§1) The antimicrobial activities of peptides 1–8 against Gram-positive Staphylococcus aureus, Gram-negative Escherichia coli DH5α, Pseudomonas aeruginosa, and multidrug-resistant P. aeruginosa (MDRP) were evaluated. The minimum inhibitory concentration (MIC) against these bacteria was measured as an indicator of antimicrobial activity, and the results are discussed in Table 2.
(§2) One type of Gram-positive bacteria, S. aureus NBRC 13276, and three Gram-negative bacteria, E. coli DH5α, P. aeruginosa NBRC 13275, and MDRP, were selected for the evaluation of the antimicrobial activity of the synthesized peptides. The selected bacterial strains were obtained from the Biological Resource Center, NITE (NBRC; Tokyo, Japan), and Escherichia coli DH5α cells were purchased from BioDynamics Laboratory, Inc. (Tokyo, Japan). The antimicrobial activities of the tested peptides 1–8 against each stain were examined by the standard broth microdilution method, as previously reported. Briefly, the bacteria were seeded and grown overnight at 37 °C on Agar media for other organisms i (Agar medium) and then collected with the media for other organisms ii (liquid medium), according to the 17th revision of Japanese Pharmacopoeia. Next, 10 μL of the peptide solution per well was added to each well of a sterile 96-well plate, and 90 μL per well of inoculation was mixed with 10^4 CFUs (colony forming units) per mL and added to each well, and the plate was incubated for 18 h at 35 °C.

[2] = tested on: P. aeruginosa NBRC 13275; type: cell-based, Pseudomonas aeruginosa; conditions: NBRC 13275, 18 h
Method: as §1, §2

[3] = tested on: S. aureus NBRC 13276; type: cell-based, Staphylococcus aureus
Method: as §1, §2

[4] = tested on: human red blood cells; assay: Hemolysis activity against red blood cells; conditions: human RBCs in 172 mM Tris-HCl pH 7.6, 30 min at 37 °C, absorbance 535 nm; DMSO = 0%, M-Lycotoxin = 100%; final peptide conc. 100 to 0.39
Method: AMPs primarily target microbial membranes, leading to their antimicrobial activity through membrane lysis. However, it is important to consider their potential effects on human cell membranes, as this could raise concerns regarding cytotoxicity. […] Hemolytic activity was assessed by measuring the absorption at 535 nm, which indicates the leakage of red blood cell cytoplasmic contents and hemoglobin.
Human red blood cells (RBCs) were supplied by the Japanese Red Cross Society (Tokyo, Japan). The hemolytic assay of the synthesized peptides was performed as previously reported. Briefly, 5.0 mL of the total erythrocytes were washed three times with 172 mM Tris-HCl buffer (pH = 7.6, wash buffer:WB) and 1.0 mL of precipitated erythrocytes was diluted with 9.0 mL of WB. Then, 0.5 mL of the suspension was diluted in WB, and 50 µL of RBC solution was incubated with 50 µL of each peptide for 30 min at 37 °C (final peptide conc. from 100 to 0.39 μM). The suspensions were then centrifuged at 400 rpm for 5 min. The absorbance of the supernatant was measured at a wavelength of 535 nm. M-Lycotoxin [22], which is a typical hemolytic toxic peptide derived from Wolf spider, was used as a positive control, and the absorbance of the sample from DMSO and M-Lycotoxin treatment was defined as 0 and 100%, respectively.

[5] = PBS without FBS
[6] = in vitro; conditions: 50% fetal bovine serum in PBS
[7] = tested on: multidrug-resistant P. aeruginosa (MDRP); type: cell-based, Pseudomonas aeruginosa; conditions: multidrug-resistant (MDRP, 18 h)
Method: as §1, §2

[8] = tested on: Proteinase K; assay: 0.002% (v/v) Proteinase K; conditions: 37 °C, up to 24 h
[9] = broth microdilution, 10^4 CFUs per mL, 18 h at 35 °C, MIC = lowest concentration that completely inhibited bacterial growth, final conc. 0.39 to 100

| Molecule | MIC, E. Coli DH5α, Gram(−) [1] [µM] | MIC, P. aeruginosa, Gram(−) [2] [µM] | MIC, S. aureus, Gram(+) [3, 9] [µM] | Hemolysis (concentration at which hemolytic activity is exhibited) [4] [µM] | Stability in PBS [5] | remaining at 24 h [6] [%] | residual amount after 24 h proteinase K treatment [%] | MIC, S. aureus, Gram(+) ([3]; NBRC 13276, 18 h) [µM] | MIC, MDRP [7] [µM] | cleaved bond [8] |
| --- | --- | --- | --- | --- | --- | --- | --- | --- | --- | --- |
| CC[C@H](C)[C@H](NC(=O)CN)C(=O)NC1(C(=O)N[C@@H](CCCCN)C(=O)N[C@@H](Cc2ccccc2)C(=O)N[C@@H](CC(C)C)C(=O)N[C@@H](CCCCN)C(=O)N[C@@H](CO)C(=O)NC(C)(C)C(=O)N[C@@H](CCCCN)C(=O)N[C@@H](CCCCN)C(=O)N[C@@H](Cc2ccccc2)C(=O)N[C@H](C(=O)N[C@@H](CCCCN)C(=O)NC(C)(C)C(=O)N[C@@H](Cc2ccccc2)C(=O)N[C@@H](CCCCN)C(N)=O)C(C)C)CCNCC1 [Peptide 2] (H-GI[Api]KFLKS[Aib]KKFVK[Aib]FK-NH2) | 3.125 (≈ 6.23 µg/mL) | 3.125 (≈ 6.23 µg/mL) | 12.5 (≈ 24.9 µg/mL) | 12.5 | stable in PBS | 70 | > 60 | – | – | – |
| CC[C@H](C)[C@H](NC(=O)CN)C(=O)N[C@@H](CCCCN)C(=O)NC1(C(=O)N[C@@H](Cc2ccccc2)C(=O)N[C@@H](CC(C)C)C(=O)N[C@@H](CCCCN)C(=O)N[C@@H](CO)C(=O)NC(C)(C)C(=O)N[C@@H](CCCCN)C(=O)N[C@@H](CCCCN)C(=O)N[C@@H](Cc2ccccc2)C(=O)N[C@H](C(=O)N[C@@H](CCCCN)C(=O)NC(C)(C)C(=O)N[C@@H](Cc2ccccc2)C(=O)N[C@@H](CCCCN)C(N)=O)C(C)C)CCNCC1 [Peptide 3] (H-GIK[Api]FLKS[Aib]KKFVK[Aib]FK-NH2) | 3.125 (≈ 6.23 µg/mL) | 3.125 (≈ 6.23 µg/mL) | – | 25 | – | – | – | 25 (≈ 49.8 µg/mL) | – | – |
| CC[C@H](C)[C@H](NC(=O)CN)C(=O)N[C@@H](CCCCN)C(=O)N[C@@H](CCCCN)C(=O)N[C@@H](Cc1ccccc1)C(=O)N[C@@H](CC(C)C)C(=O)NC1(C(=O)N[C@@H](CO)C(=O)NC(C)(C)C(=O)N[C@@H](CCCCN)C(=O)N[C@@H](CCCCN)C(=O)N[C@@H](Cc2ccccc2)C(=O)N[C@H](C(=O)N[C@@H](CCCCN)C(=O)NC(C)(C)C(=O)N[C@@H](Cc2ccccc2)C(=O)N[C@@H](CCCCN)C(N)=O)C(C)C)CCNCC1 [Peptide 4] (H-GIKKFL[Api]S[Aib]KKFVK[Aib]FK-NH2) | 1.56 (≈ 3.11 µg/mL) | 3.125 (≈ 6.23 µg/mL) | 12.5 (≈ 24.9 µg/mL) | 12.5 | – | – | – | – | 6.25 (≈ 12.5 µg/mL) | – |
| CC[C@H](C)[C@H](NC(=O)CN)C(=O)N[C@@H](CCCCN)C(=O)N[C@@H](CCCCN)C(=O)N[C@@H](Cc1ccccc1)C(=O)N[C@@H](CC(C)C)C(=O)N[C@@H](CCCCN)C(=O)N[C@@H](CO)C(=O)NC(C)(C)C(=O)NC1(C(=O)N[C@@H](CCCCN)C(=O)N[C@@H](Cc2ccccc2)C(=O)N[C@H](C(=O)N[C@@H](CCCCN)C(=O)NC(C)(C)C(=O)N[C@@H](Cc2ccccc2)C(=O)N[C@@H](CCCCN)C(N)=O)C(C)C)CCNCC1 [Peptide 5] (H-GIKKFLKS[Aib][Api]KFVK[Aib]FK-NH2) | 1.56 (≈ 3.11 µg/mL) | 3.125 (≈ 6.23 µg/mL) | – | 50 | – | – | – | 25 (≈ 49.8 µg/mL) | 6.25 (≈ 12.5 µg/mL) | – |
| CC[C@H](C)[C@H](NC(=O)CN)C(=O)N[C@@H](CCCCN)C(=O)N[C@@H](CCCCN)C(=O)N[C@@H](Cc1ccccc1)C(=O)N[C@@H](CC(C)C)C(=O)N[C@@H](CCCCN)C(=O)N[C@@H](CO)C(=O)NC(C)(C)C(=O)N[C@@H](CCCCN)C(=O)NC1(C(=O)N[C@@H](Cc2ccccc2)C(=O)N[C@H](C(=O)N[C@@H](CCCCN)C(=O)NC(C)(C)C(=O)N[C@@H](Cc2ccccc2)C(=O)N[C@@H](CCCCN)C(N)=O)C(C)C)CCNCC1 [Peptide 6] (H-GIKKFLKS[Aib]K[Api]FVK[Aib]FK-NH2) | 1.56 (≈ 3.11 µg/mL) | 3.125 (≈ 6.23 µg/mL) | – | 50 | – | – | – | 12.5 (≈ 24.9 µg/mL) | 6.25 (≈ 12.5 µg/mL) | – |
| CC[C@H](C)[C@H](NC(=O)CN)C(=O)N[C@@H](CCCCN)C(=O)N[C@@H](CCCCN)C(=O)N[C@@H](Cc1ccccc1)C(=O)N[C@@H](CC(C)C)C(=O)N[C@@H](CCCCN)C(=O)N[C@@H](CO)C(=O)NC(C)(C)C(=O)N[C@@H](CCCCN)C(=O)N[C@@H](CCCCN)C(=O)N[C@@H](Cc1ccccc1)C(=O)N[C@H](C(=O)NC1(C(=O)NC(C)(C)C(=O)N[C@@H](Cc2ccccc2)C(=O)N[C@@H](CCCCN)C(N)=O)CCNCC1)C(C)C [Peptide 7] (H-GIKKFLKS[Aib]KKFV[Api][Aib]FK-NH2) | 1.56 (≈ 3.11 µg/mL) | 3.125 (≈ 6.23 µg/mL) | 12.5 (≈ 24.9 µg/mL) | 12.5 | – | – | – | – | 6.25 (≈ 12.5 µg/mL) | – |
| CC[C@H](C)[C@H](NC(=O)CN)C(=O)N[C@@H](CCCCN)C(=O)N[C@@H](CCCCN)C(=O)N[C@@H](Cc1ccccc1)C(=O)N[C@@H](CC(C)C)C(=O)N[C@@H](CCCCN)C(=O)N[C@@H](CO)C(=O)NC(C)(C)C(=O)N[C@@H](CCCCN)C(=O)N[C@@H](CCCCN)C(=O)N[C@@H](Cc1ccccc1)C(=O)N[C@H](C(=O)N[C@@H](CCCCN)C(=O)NC(C)(C)C(=O)N[C@@H](Cc1ccccc1)C(=O)NC1(C(N)=O)CCNCC1)C(C)C [Peptide 8] (H-GIKKFLKS[Aib]KKFVK[Aib]F[Api]-NH2) | 3.125 (≈ 6.23 µg/mL) | 3.125 (≈ 6.23 µg/mL) | – | 100 | – | – | – | 12.5 (≈ 24.9 µg/mL) | 12.5 (≈ 24.9 µg/mL) | – |
| H-GIKKFLKS[Aib]KKFVK[Aib]FK-NH2 | – | – | – | – | – | – | – | – | – | Phe5-Leu6, 24 h; also recorded: Phe16-Lys17 |
| H-Gly-Ile-Api-Lys-Phe-Leu-Lys-Ser-Aib-Lys-Lys-Phe-Val-Lys-Aib-Phe-Lys-NH2 | – | – | – | – | – | – | – | – | – | Phe16-Lys17, 24 h |
| H-Gly-Ile-Lys-Api-Phe-Leu-Lys-Ser-Aib-Lys-Lys-Phe-Val-Lys-Aib-Phe-Lys-NH2 | – | – | – | – | – | – | – | – | – | Phe16-Lys17, 24 h |
| H-Gly-Ile-Lys-Lys-Phe-Leu-Api-Ser-Aib-Lys-Lys-Phe-Val-Lys-Aib-Phe-Lys-NH2 | – | – | – | – | – | – | – | – | – | Phe16-Lys17, 24 h |
